Results as given in patent US11274332B2, “Methods of administering 3,4-diaminopyridine” (SERB SA, priority 2011, dated 2022).
Where two headings read alike, the source gives them in different places.

Assay: Example 18 Part 2: multiple dose PK (20 mg QID) of 3,4-DAP and 3-N-acetyl metabolite in slow and fast acetylators
Format: in vivo, human
Settings: for AUC(0-t) / Cmax / Tmax / Vd/F / half-life: both sexes, human, plasma, oral, 20 mg; for Tmax: read-out: Mean Tmax; for Vd/F: read-out: Mean Vz/F; for half-life: read-out: Mean t1/2 (converted)
Method: The following method was used to analyze concentrations of 3,4-diaminopyridine and N-(4-aminopyridin-3-yl)acetamide in plasma and urine samples for the experiments in Example 18. In the LC/MS/MS method, the human plasma and urine samples were extracted using acetonitrile containing 0.1% formic acid. Samples were analyzed by using HPLC with positive ion electrospray MS/MS detection. The column was an Atlantis HILIC Silica column (3 μm, 3×50 mm) at a temperature of 40° C. Mobile phase A was water containing ammonium formate (20 mM) and 0.1% formic acid. Mobile phase B was acetonitrile/isopropanol (90/10; v/v) containing 0.1% formic acid. The flow rate was 0.90 mL/minute. The gradient conditions for human plasma and urine samples were as follows:
The LC/MS/MS method was validated to quantify 3,4-DAP in human plasma in the linear calibration range of 0.500 to 500 ng/mL and from 1.00 to 1000 ng/mL for the 3-N-acetyl metabolite.
The primary objective of the study was to assess the safety and tolerability of 3,4-DAP phosphate after single and multiple doses. The secondary objectives of the study were • Part 1 only: To determine the dose-related PK profile of amifampridine and of 3-N-acetyl amifampridine after single, escalating doses of 3,4-DAP phosphate • Part 2 only: To assess the steady-state plasma PK and accumulation of amifampridine and of 3-N-acetyl amifampridine over multiple days of dosing with 3,4-DAP phosphate An exploratory objective was to examine the overall activity of the N-acetyl transferase enzymes on the metabolism of amifampridine by assessing the PK of amifampridine and 3-N-acetyl amifampridine with phenotypic acetylation activity and genotyping determination of NAT2 gene polymorphisms. Study Design and Plan
This open-label study in healthy subjects (male and female) was conducted in 2 parts. A total of 26 healthy male and female subjects, 12 in Part 1 (at least 5 of each sex), 4 in Part 2 Group 1, and 10 in Part 2 Group 2 (at least 4 of each sex) were enrolled into the study. The same subjects were not enrolled to participate in both parts. Subjects in Part 2 were dosed only after all subjects of Part 1 completed dosing and at least 24-hours of follow-up safety evaluation after the last dose were completed.
All subjects were characterized for their metabolic acetylation phenotype and NAT2 genotype in order to divide subjects into two groups of acetylators. Volunteers were genetically typed for highly variant alleles of the N-acetyl transferase 2 enzyme (NAT2) domain on chromosome 8 (according to Example 16) and were phenotyped for acetylation rates with a caffeine challenge test (according to Example 15a). Approximately equal numbers of slow and fast acetylators (as defined by a caffeine challenge test in Example 15a) were enrolled in each group. In Part 2, very slow acetylators with NAT2 activity (ratio 1, Example 15a) below 0.06 were excluded from participation in the study. In each part of the study, subjects were assessed for PK, safety, and tolerability and all doses were administered within 30 min of ingestion of a meal or a snack.
Part 2, Group 1: Four sentinel subjects were selected after determining their acetylator status. Two were fast acetylators and two were slow acetylators. All four were dosed on Day 1 with 4 oral doses of 20 mg of 34-DAP phosphate (given at 4-hour dosing intervals). On Days […] and 2, safety and tolerability data was collected. Subjects left the clinic on Day 2. The safety and tolerability data collected for these 4 sentinel subjects were reviewed. The safety and tolerability results of Days 1 and 2 for these subjects were acceptable and thus Part 2 Group 2 was commenced. Minimally acceptable safety was defined as the absence of clinical seizure activity. Subjects in Group 1 returned to the clinic for their follow-up assessments 2-4 days following their last dose.
Each subject was given a final morning dose of 20 mg 3,4-DAP phosphate on Day 4. […]

[1] = Day 1, Dose 1, fast acetylators, 20 mg QID
[2] = Day 1, Dose 1, slow acetylators, 20 mg QID
[3] = Day 1, Dose 2, fast acetylators, 20 mg QID
[4] = Day 1, Dose 2, slow acetylators, 20 mg QID
[5] = Day 1, Dose 3, fast acetylators, 20 mg QID
[6] = Day 1, Dose 3, slow acetylators, 20 mg QID
[7] = Day 1, Dose 4, fast acetylators, 20 mg QID
[8] = Day 1, Dose 4, slow acetylators, 20 mg QID
[9] = Day 3, Dose 1, fast acetylators, 20 mg QID
[10] = Day 3, Dose 1, slow acetylators, 20 mg QID
[11] = Day 3, Dose 2, fast acetylators, 20 mg QID
[12] = Day 3, Dose 2, slow acetylators, 20 mg QID
[13] = Day 3, Dose 3, fast acetylators, 20 mg QID
[14] = Day 3, Dose 3, slow acetylators, 20 mg QID
[15] = Day 3, Dose 4, fast acetylators, 20 mg QID
[16] = Day 3, Dose 4, slow acetylators, 20 mg QID
[17] = Day 4, 20 mg single dose, fast acetylators
[18] = Day 4, 20 mg single dose, slow acetylators

Nc1ccncc1N [3,4-DAP, 3,4-diaminopyridine]
Mean CL/F [1]: 898 L/h | Mean CL/F [2]: 152 L/h | Mean CL/F [3]: 757 L/h | Mean CL/F [4]: 107 L/h | Mean CL/F [5]: 879 L/h | Mean CL/F [6]: 117 L/h | Mean CL/F [7]: 885 L/h | Mean CL/F [8]: 101 L/h | Mean CL/F [9]: 973 L/h | Mean CL/F [10]: 124 L/h | Mean CL/F [11]: 607 L/h | Mean CL/F [12]: 92.9 L/h | Mean CL/F [13]: 817 L/h | Mean CL/F [14]: 103 L/h | Mean CL/F [15]: 795 L/h | Mean CL/F [16]: 73.2 L/h | Mean CL/F [17]: 673 L/h | Mean CL/F [18]: 108 L/h | AUC(0-t) (Day 1, Dose 1, fast acetylators, 20 mg QID, read-out: Mean AUC0-4): 0.0235 µg·h/mL | Cmax (Day 1, Dose 1, fast acetylators, 20 mg QID, read-out: Mean Cmax): 0.0244 µg/mL | Tmax [1]: 0.809 h | Vd/F [1]: 1330 L | half-life [1]: 1.12 h | AUC(0-t) (Day 1, Dose 1, slow acetylators, 20 mg QID, read-out: Mean AUC0-4): 0.115 µg·h/mL | Cmax (Day 1, Dose 1, slow acetylators, 20 mg QID, read-out: Mean Cmax): 0.0748 µg/mL | Tmax [2]: 1.12 h | Vd/F [2]: 299 L | half-life [2]: 1.39 h | AUC(0-t) (Day 1, Dose 1-4, fast acetylators, 20 mg QID, read-out: Mean AUC0-24): 0.0979 µg·h/mL | AUC(0-t) (Day 1, Dose 1-4, slow acetylators, 20 mg QID, read-out: Mean AUC0-24): 0.63 µg·h/mL | AUC(0-t) (Day 1, Dose 2, fast acetylators, 20 mg QID, read-out: Mean AUC0-4): 0.0225 µg·h/mL | Cmax (Day 1, Dose 2, fast acetylators, 20 mg QID, read-out: Mean Cmax): 0.0133 µg/mL | Tmax [3]: 1.07 h | Vd/F [3]: 1340 L | half-life [3]: 1.31 h | AUC(0-t) (Day 1, Dose 2, slow acetylators, 20 mg QID, read-out: Mean AUC0-4): 0.152 µg·h/mL | Cmax (Day 1, Dose 2, slow acetylators, 20 mg QID, read-out: Mean Cmax): 0.0837 µg/mL | Tmax [4]: 1.14 h | Vd/F [4]: 293 L | half-life [4]: 1.93 h | AUC(0-t) (Day 1, Dose 3, fast acetylators, 20 mg QID, read-out: Mean AUC0-4): 0.0241 µg·h/mL | Cmax (Day 1, Dose 3, fast acetylators, 20 mg QID, read-out: Mean Cmax): 0.0168 µg/mL | Tmax [5]: 0.583 h | Vd/F [5]: 1720 L | half-life [5]: 1.3 h | AUC(0-t) (Day 1, Dose 3, slow acetylators, 20 mg QID, read-out: Mean AUC0-4): 0.14 µg·h/mL | Cmax (Day 1, Dose 3, slow acetylators, 20 mg QID, read-out: Mean Cmax): 0.0722 µg/mL | Tmax [6]: 0.857 h | Vd/F [6]: 269 L | half-life [6]: 1.59 h | AUC(0-t) (Day 1, Dose 4, fast acetylators, 20 mg QID, read-out: Mean AUC0-4): 0.0237 µg·h/mL | Cmax (Day 1, Dose 4, fast acetylators, 20 mg QID, read-out: Mean Cmax): 0.0164 µg/mL | Tmax [7]: 0.643 h | Vd/F [7]: 1730 L | half-life [7]: 1.49 h | AUC(0-t) (Day 1, Dose 4, slow acetylators, 20 mg QID, read-out: Mean AUC0-4): 0.145 µg·h/mL | Cmax (Day 1, Dose 4, slow acetylators, 20 mg QID, read-out: Mean Cmax): 0.0671 µg/mL | Tmax [8]: 1.29 h | Vd/F [8]: 338 L | half-life [8]: 2.52 h | AUC(0-t) (Day 3, Dose 1, fast acetylators, 20 mg QID, read-out: Mean AUC0-4): 0.0249 µg·h/mL | Cmax (Day 3, Dose 1, fast acetylators, 20 mg QID, read-out: Mean Cmax): 0.024 µg/mL | Tmax [9]: 0.8 h | Vd/F [9]: 1390 L | half-life [9]: 1.07 h | AUC(0-t) (Day 3, Dose 1, slow acetylators, 20 mg QID, read-out: Mean AUC0-4): 0.13 µg·h/mL | Cmax (Day 3, Dose 1, slow acetylators, 20 mg QID, read-out: Mean Cmax): 0.0812 µg/mL | Tmax [10]: 1 h | Vd/F [10]: 283 L | half-life [10]: 1.6 h | AUC(0-t) (Day 3, Dose 1-4, fast acetylators, 20 mg QID, read-out: Mean AUC0-24): 0.111 µg·h/mL | AUC(0-t) (Day 3, Dose 1-4, slow acetylators, 20 mg QID, read-out: Mean AUC0-24): 0.701 µg·h/mL | AUC(0-t) (Day 3, Dose 2, fast acetylators, 20 mg QID, read-out: Mean AUC0-4): 0.0285 µg·h/mL | Cmax (Day 3, Dose 2, fast acetylators, 20 mg QID, read-out: Mean Cmax): 0.0187 µg/mL | Tmax [11]: 0.9 h | Vd/F [11]: 1110 L | half-life [11]: 1.34 h | AUC(0-t) (Day 3, Dose 2, slow acetylators, 20 mg QID, read-out: Mean AUC0-4): 0.164 µg·h/mL | Cmax (Day 3, Dose 2, slow acetylators, 20 mg QID, read-out: Mean Cmax): 0.0961 µg/mL | Tmax [12]: 1 h | Vd/F [12]: 260 L | half-life [12]: 1.97 h | AUC(0-t) (Day 3, Dose 3, fast acetylators, 20 mg QID, read-out: Mean AUC0-4): 0.0258 µg·h/mL | Cmax (Day 3, Dose 3, fast acetylators, 20 mg QID, read-out: Mean Cmax): 0.0219 µg/mL | Tmax [13]: 0.532 h | Vd/F [13]: 2200 L | half-life [13]: 1.73 h | AUC(0-t) (Day 3, Dose 3, slow acetylators, 20 mg QID, read-out: Mean AUC0-4): 0.156 µg·h/mL | Cmax (Day 3, Dose 3, slow acetylators, 20 mg QID, read-out: Mean Cmax): 0.0809 µg/mL | Tmax [14]: 0.8 h | Vd/F [14]: 241 L | half-life [14]: 1.63 h | AUC(0-t) (Day 3, Dose 4, fast acetylators, 20 mg QID, read-out: Mean AUC0-4): 0.0251 µg·h/mL | Cmax (Day 3, Dose 4, fast acetylators, 20 mg QID, read-out: Mean Cmax): 0.0162 µg/mL | Tmax [15]: 0.8 h | Vd/F [15]: 1870 L | half-life [15]: 1.82 h | AUC(0-t) (Day 3, Dose 4, slow acetylators, 20 mg QID, read-out: Mean AUC0-4): 0.168 µg·h/mL | Cmax (Day 3, Dose 4, slow acetylators, 20 mg QID, read-out: Mean Cmax): 0.0971 µg/mL | Tmax [16]: 0.6 h | Vd/F [16]: 376 L | half-life [16]: 3.56 h | AUC(0-t) (Day 4, 20 mg single dose, fast acetylators, read-out: Mean AUC0-4): 0.0226 µg·h/mL | AUC(0-t) (Day 4, 20 mg single dose, fast acetylators, read-out: Mean AUC0-24): 0.0259 µg·h/mL | Cmax (Day 4, 20 mg single dose, fast acetylators, read-out: Mean Cmax): 0.0136 µg/mL | Tmax [17]: 0.9 h | Vd/F [17]: 1770 L | half-life [17]: 1.95 h | AUC(0-t) (Day 4, 20 mg single dose, slow acetylators, read-out: Mean AUC0-4): 0.133 µg·h/mL | AUC(0-t) (Day 4, 20 mg single dose, slow acetylators, read-out: Mean AUC0-24): 0.186 µg·h/mL | Cmax (Day 4, 20 mg single dose, slow acetylators, read-out: Mean Cmax): 0.0725 µg/mL | Tmax [18]: 1.2 h | Vd/F [18]: 486 L | half-life [18]: 3.24 h | Cmax (Days 1-4, 20 mg QID, fast acetylators, read-out: plasma mean Cmax values, range): 0.0133 to 0.0244 µg/mL | Cmax (Days 1-4, 20 mg QID, slow acetylators, read-out: plasma mean Cmax values, range): 0.0671 to 0.0971 µg/mL
